From the OligoGym collection
Oligonucleotides are written 5' to 3', each unit as a sugar letter and its base; * is a phosphorothioate linkage, no mark a phosphodiester; rarer units and linkages stand in square brackets, end groups in braces. Plain capitals give the bases only. Oligonucleotides are given in HELM: sugar(base)linkage, 5' to 3'; d 2'-deoxyribose, r ribose, m 2'-O-methylribose, p phosphate. ss, as = sense and antisense strand; d = 2'-deoxy (DNA); r = 2'-OH (RNA)

The substances below were run against UBE2I (assay: reporter assay of Huesken 2005). Conditions: siRNA.
Also: test concentration or dose not given here.

Compared with “sense rArGrGrGrArCrUrCrCrGrUrGrGrGrArArGrGrAdTdT / antisense rUrCrCrUrUrCrCrCrArCrGrGrArGrUrCrCrCrUdTdT”, “sense rArUrArCrArGrGrArArCrUrUrCrUrArArArUrGdTdT / antisense rCrArUrUrUrArGrArArGrUrUrCrCrUrGrUrArUdTdC” is lower in normalised inhibition (eCFP-eYFP dual reporter): 72.1% for the first, 52.1% for the second.

First: sense rArUrGrUrArArArUrUrCrGrArArCrCrArCrCrAdTdT / antisense rUrGrGrUrGrGrUrUrCrGrArArUrUrUrArCrArUdTdT
Second: sense rArUrUrCrCrArGrGrArArArGrArArArGrGrGrAdTdT / antisense rUrCrCrCrUrUrUrCrUrUrUrCrCrUrGrGrArArUdGdG
The normalised inhibition (eCFP-eYFP dual reporter) of the first is lower: 75% for the first, 83.9% for the second.

Going from “sense rArUrUrCrGrArArCrCrArCrCrArUrUrArUrUrUdTdT / antisense rArArArUrArArUrGrGrUrGrGrUrUrCrGrArArUdTdT” to “sense rArUrUrUrGrGrUrUrUrCrGrUrGrGrCrUrGrUrCdTdT / antisense rGrArCrArGrCrCrArCrGrArArArCrCrArArArUdGdG”, the normalised inhibition (eCFP-eYFP dual reporter) falls from 81% to 51.6%.

First: sense rCrArArGrArCrCrCrArGrCrUrCrArArGrCrArGdTdT / antisense rCrUrGrCrUrUrGrArGrCrUrGrGrGrUrCrUrUrGdGdA
Second: sense rCrArCrArArUrCrArArArCrArGrArUrCrCrUrAdTdT / antisense rUrArGrGrArUrCrUrGrUrUrUrGrArUrUrGrUrGdAdT
The normalised inhibition (eCFP-eYFP dual reporter) of the first is lower: 75.8% for the first, 87.4% for the second.

First: sense rCrArCrCrCrArUrUrUrGrGrUrUrUrCrGrUrGrGdTdT / antisense rCrCrArCrGrArArArCrCrArArArUrGrGrGrUrGdGdT
Second: sense rCrArGrArGrGrCrCrUrArCrArCrGrArUrUrUrAdTdT / antisense rUrArArArUrCrGrUrGrUrArGrGrCrCrUrCrUrGdCdT
The normalised inhibition (eCFP-eYFP dual reporter) of the first is higher: 85.4% for the first, 83.8% for the second.

First: sense rCrArGrArUrCrCrUrArUrUrArGrGrArArUrArCdTdT / antisense rGrUrArUrUrCrCrUrArArUrArGrGrArUrCrUrGdTdT
Second: sense rCrArGrUrGrUrGrCrCrUrGrUrCrCrArUrCrUrUdTdT / antisense rArArGrArUrGrGrArCrArGrGrCrArCrArCrUrGdTdC
The normalised inhibition (eCFP-eYFP dual reporter) of the first is lower: 74.4% for the first, 80.1% for the second.

Compared with “sense rCrCrArGrCrCrArUrCrArCrArArUrCrArArArCdTdT / antisense rGrUrUrUrGrArUrUrGrUrGrArUrGrGrCrUrGrGdCdC”, “sense rCrCrArGrGrArArArGrArArArGrGrGrArCrUrCdTdT / antisense rGrArGrUrCrCrCrUrUrUrCrUrUrUrCrCrUrGrGdAdA” is lower in normalised inhibition (eCFP-eYFP dual reporter): 56% for the first, 54.9% for the second.

Going from “sense rCrCrCrGrArUrGrGrCrArCrGrArUrGrArArCrCdTdT / antisense rGrGrUrUrCrArUrCrGrUrGrCrCrArUrCrGrGrGdAdT” to “sense rCrCrGrArUrGrGrCrArCrGrArUrGrArArCrCrUdTdT / antisense rArGrGrUrUrCrArUrCrGrUrGrCrCrArUrCrGrGdGdA”, the normalised inhibition (eCFP-eYFP dual reporter) rises from 55% to 81.8%.

Compared with “sense rCrCrUrCrArUrGrArArCrUrGrGrGrArGrUrGrCdTdT / antisense rGrCrArCrUrCrCrCrArGrUrUrCrArUrGrArGrGdTdT”, “sense rCrCrUrUrCrGrGrGrGrArCrArGrUrGrUrGrCrCdTdT / antisense rGrGrCrArCrArCrUrGrUrCrCrCrCrGrArArGrGdGdT” is lower in normalised inhibition (eCFP-eYFP dual reporter): 72.2% for the first, 51.1% for the second.

First: sense rCrGrArArUrGrUrGrUrArCrCrCrUrUrCrGrGrGdTdT / antisense rCrCrCrGrArArGrGrGrUrArCrArCrArUrUrCrGdGdG
Second: sense rCrGrArUrGrArArCrCrUrCrArUrGrArArCrUrGdTdT / antisense rCrArGrUrUrCrArUrGrArGrGrUrUrCrArUrCrGdTdG
The normalised inhibition (eCFP-eYFP dual reporter) of the first is lower: 45.1% for the first, 78.2% for the second.

Going from “sense rCrGrGrArUrGrCrUrUrUrUrCrArArArGrArUrGdTdT / antisense rCrArUrCrUrUrUrGrArArArArGrCrArUrCrCrGdTdA” to “sense rCrUrUrCrUrArArArUrGrArArCrCrArArArUrAdTdT / antisense rUrArUrUrUrGrGrUrUrCrArUrUrUrArGrArArGdTdT”, the normalised inhibition (eCFP-eYFP dual reporter) rises from 87.3% to 88.8%.

Going from “sense rGrArArArGrArArArGrGrGrArCrUrCrCrGrUrGdTdT / antisense rCrArCrGrGrArGrUrCrCrCrUrUrUrCrUrUrUrCdCdT” to “sense rGrArArArGrGrGrArCrUrCrCrGrUrGrGrGrArAdTdT / antisense rUrUrCrCrCrArCrGrGrArGrUrCrCrCrUrUrUrCdTdT”, the normalised inhibition (eCFP-eYFP dual reporter) rises from 53.1% to 89.3%.

First: sense rGrArGrGrArGrGrArCrArArGrGrArCrUrGrGrAdTdT / antisense rUrCrCrArGrUrCrCrUrUrGrUrCrCrUrCrCrUrCdTdA
Second: sense rGrArGrGrCrUrUrGrUrUrUrArArArCrUrArCrGdTdT / antisense rCrGrUrArGrUrUrUrArArArCrArArGrCrCrUrCdCdT
The normalised inhibition (eCFP-eYFP dual reporter) of the first is lower: 70.5% for the first, 73.2% for the second.

Going from “sense rGrArGrUrGrCrGrCrCrArUrUrCrCrArGrGrArAdTdT / antisense rUrUrCrCrUrGrGrArArUrGrGrCrGrCrArCrUrCdCdC” to “sense rGrCrArCrGrArUrGrArArCrCrUrCrArUrGrArAdTdT / antisense rUrUrCrArUrGrArGrGrUrUrCrArUrCrGrUrGrCdCdA”, the normalised inhibition (eCFP-eYFP dual reporter) rises from 72.6% to 84.4%.

Compared with “sense rGrCrCrUrArCrArCrGrArUrUrUrArCrUrGrCrCdTdT / antisense rGrGrCrArGrUrArArArUrCrGrUrGrUrArGrGrCdCdT”, “sense rGrCrUrUrGrUrUrUrArArArCrUrArCrGrGrArUdTdT / antisense rArUrCrCrGrUrArGrUrUrUrArArArCrArArGrCdCdT” is higher in normalised inhibition (eCFP-eYFP dual reporter): 67.8% for the first, 92.2% for the second.

Compared with “sense rGrGrArCrArArGrGrArCrUrGrGrArGrGrCrCrAdTdT / antisense rUrGrGrCrCrUrCrCrArGrUrCrCrUrUrGrUrCrCdTdC”, “sense rGrGrArGrGrCrUrUrGrUrUrUrArArArCrUrArCdTdT / antisense rGrUrArGrUrUrUrArArArCrArArGrCrCrUrCrCdTdT” is lower in normalised inhibition (eCFP-eYFP dual reporter): 85.9% for the first, 82.5% for the second.

Going from “sense rGrGrGrGrArCrArGrUrGrUrGrCrCrUrGrUrCrCdTdT / antisense rGrGrArCrArGrGrCrArCrArCrUrGrUrCrCrCrCdGdA” to “sense rGrUrArArArUrUrCrGrArArCrCrArCrCrArUrUdTdT / antisense rArArUrGrGrUrGrGrUrUrCrGrArArUrUrUrArCdAdT”, the normalised inhibition (eCFP-eYFP dual reporter) rises from 47.8% to 89.2%.

First: sense rUrArCrArCrGrArUrUrUrArCrUrGrCrCrArArAdTdT / antisense rUrUrUrGrGrCrArGrUrArArArUrCrGrUrGrUrAdGdG
Second: sense rUrArUrUrArGrGrArArUrArCrArGrGrArArCrUdTdT / antisense rArGrUrUrCrCrUrGrUrArUrUrCrCrUrArArUrAdGdG
The normalised inhibition (eCFP-eYFP dual reporter) of the first is higher: 92.9% for the first, 71.9% for the second.

Compared with “sense rUrArUrUrUrCrArCrCrCrGrArArUrGrUrGrUrAdTdT / antisense rUrArCrArCrArUrUrCrGrGrGrUrGrArArArUrAdAdT”, “sense rUrCrCrCrGrArUrGrGrCrArCrGrArUrGrArArCdTdT / antisense rGrUrUrCrArUrCrGrUrGrCrCrArUrCrGrGrGrAdTdT” is lower in normalised inhibition (eCFP-eYFP dual reporter): 78.9% for the first, 48.8% for the second.

Compared with “sense rUrCrCrGrUrGrGrGrArArGrGrArGrGrCrUrUrGdTdT / antisense rCrArArGrCrCrUrCrCrUrUrCrCrCrArCrGrGrAdGdT”, “sense rUrGrArUrUrArUrCrCrArUrCrUrUrCrGrCrCrAdTdT / antisense rUrGrGrCrGrArArGrArUrGrGrArUrArArUrCrAdTdC” is higher in normalised inhibition (eCFP-eYFP dual reporter): 52.4% for the first, 59% for the second.

Compared with “sense rUrGrGrGrArArGrGrArGrGrCrUrUrGrUrUrUrAdTdT / antisense rUrArArArCrArArGrCrCrUrCrCrUrUrCrCrCrAdCdG”, “sense rUrGrUrGrCrCrUrGrUrCrCrArUrCrUrUrArGrAdTdT / antisense rUrCrUrArArGrArUrGrGrArCrArGrGrCrArCrAdCdT” is lower in normalised inhibition (eCFP-eYFP dual reporter): 78% for the first, 76% for the second.

First: sense rUrGrUrUrUrArArArCrUrArCrGrGrArUrGrCrUdTdT / antisense rArGrCrArUrCrCrGrUrArGrUrUrUrArArArCrAdAdG
Second: sense rUrUrArArArCrUrArCrGrGrArUrGrCrUrUrUrUdTdT / antisense rArArArArGrCrArUrCrCrGrUrArGrUrUrUrArAdAdC
The normalised inhibition (eCFP-eYFP dual reporter) of the first is higher: 68.1% for the first, 50.2% for the second.

Compared with “sense rUrUrCrArArArGrArUrGrArUrUrArUrCrCrArUdTdT / antisense rArUrGrGrArUrArArUrCrArUrCrUrUrUrGrArAdAdA”, “sense rUrUrCrArCrCrCrGrArArUrGrUrGrUrArCrCrCdTdT / antisense rGrGrGrUrArCrArCrArUrUrCrGrGrGrUrGrArAdAdT” is lower in normalised inhibition (eCFP-eYFP dual reporter): 65.2% for the first, 49.6% for the second.

For “sense rUrUrCrGrArArCrCrArCrCrArUrUrArUrUrUrCdTdT / antisense rGrArArArUrArArUrGrGrUrGrGrUrUrCrGrArAdTdT”, the normalised inhibition (eCFP-eYFP dual reporter) was 59.1%.

The substances below were run against CDC34 (assay: reporter assay of Huesken 2005). Conditions: siRNA.

Going from “RNA1{r(A)p.r(A)p.r(C)p.r(G)p.r(U)p.r(G)p.r(G)p.r(A)p.r(C)p.r(G)p.r(C)p.r(C)p.r(U)p.r(C)p.r(C)p.r(G)p.r(U)p.r(G)p.r(A)p.d(T)p.d(T)}|RNA2{r(U)p.r(C)p.r(A)p.r(C)p.r(G)p.r(G)p.r(A)p.r(G)p.r(G)p.r(C)p.r(G)p.r(U)p.r(C)p.r(C)p.r(A)p.r(C)p.r(G)p.r(U)p.r(U)p.d(T)p.d(G)}$$$RNA1{StrandType:ss}|RNA2{StrandType:as}$” to “RNA1{r(A)p.r(A)p.r(G)p.r(A)p.r(C)p.r(C)p.r(A)p.r(A)p.r(G)p.r(G)p.r(C)p.r(G)p.r(C)p.r(C)p.r(G)p.r(G)p.r(C)p.r(G)p.r(C)p.d(T)p.d(T)}|RNA2{r(G)p.r(C)p.r(G)p.r(C)p.r(C)p.r(G)p.r(G)p.r(C)p.r(G)p.r(C)p.r(C)p.r(U)p.r(U)p.r(G)p.r(G)p.r(U)p.r(C)p.r(U)p.r(U)p.d(C)p.d(A)}$$$RNA1{StrandType:ss}|RNA2{StrandType:as}$”, the normalised inhibition (eCFP-eYFP dual reporter) falls from 55.2% to 25.5%.
